Laboratory results as given in ChEMBL document CHEMBL1201862, “PubChem BioAssay data set” (2004).
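Following 48 hours of exposure in 96-well plates, responses at five concentrations were used to interpolate endpoints linearly. The concentration for 50% growth inhibition is given as GI50.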 Calls of active or inactive are those of the source. Cut-off read from the data, not from the text of the source: active = GI50 up to about 1.1 µM and inactive = higher.

Legend:
Assay in all cases: NCI tumour cell line growth inhibition, 48 h
[1] = test system: NCI-H522
[2] = test system: HOP-92
[3] = test system: RPMI-8226
[4] = test system: HCT-15
[5] = test system: SK-MEL-28
[6] = test system: HOP-62
[7] = test system: CCRF-CEM
[8] = test system: T47D
[9] = test system: Hs-578T
[10] = test system: OVCAR-5
[11] = test system: SR
[12] = test system: BT-549
[13] = test system: CAKI-1
[14] = test system: Malme-3M
[15] = test system: OVCAR-4
[16] = test system: K562
[17] = test system: 786-0
[18] = test system: TK-10
[19] = test system: RXF 393

Compound	GI50 [1]	GI50 [2]	GI50 [3]	GI50 [4] [µM]	GI50 [5]	GI50 [6]	GI50 [7]	GI50 [8]	GI50 [9]	GI50 [10]	GI50 [11]	GI50 [12]	GI50 [13]	GI50 [14]	GI50 [15]	GI50 [16]	GI50 [17]	GI50 [18]	GI50 [19]
COc1cccc2c1-c1nc(N)c3c(OC)cccc3c1C2=O	> 100 µM (inactive)	> 100 µM (inactive)	> 100 µM (inactive)	28.9	> 100 µM (inactive)	22.8 µM (inactive)	> 100 µM (inactive)	> 100 µM (inactive)	22.2 µM (inactive)	> 100 µM (inactive)	> 100 µM (inactive)	> 100 µM (inactive)	> 100 µM (inactive)	> 100 µM (inactive)	62.8 µM (inactive)	64.7 µM (inactive)	35.9 µM (inactive)	> 100 µM (inactive)	–
C1CNCCN2CCCNCCN(C1)CC2	> 100 µM (inactive)	> 100 µM (inactive)	> 100 µM (inactive)	> 100	> 100 µM (inactive)	> 100 µM (inactive)	2 µM (inactive)	> 100 µM (inactive)	> 100 µM (inactive)	> 100 µM (inactive)	> 100 µM (inactive)	> 100 µM (inactive)	> 100 µM (inactive)	> 100 µM (inactive)	> 100 µM (inactive)	–	> 100 µM (inactive)	> 100 µM (inactive)	> 100 µM (inactive)
O=C(Cc1nc2ncccc2[nH]c1=O)c1c[nH]c2ccccc12	16.6 µM (inactive)	17.7 µM (inactive)	16.7 µM (inactive)	31.6	15.1 µM (inactive)	18.7 µM (inactive)	13.4 µM (inactive)	17.6 µM (inactive)	18.6 µM (inactive)	24.2 µM (inactive)	30 µM (inactive)	29.4 µM (inactive)	17.4 µM (inactive)	17.6 µM (inactive)	–	21.4 µM (inactive)	18.2 µM (inactive)	16.7 µM (inactive)	22 µM (inactive)
O=C1CSC(c2ccccc2)N1c1ccc(-n2c(-c3ccccc3)nc3ccccc3c2=O)cc1 (stereo not given)	49.7 µM (inactive)	> 61.1 µM (inactive)	42.6 µM (inactive)	46.9	> 80.4 µM (inactive)	> 100 µM (inactive)	36.3 µM (inactive)	34.8 µM (inactive)	> 83.8 µM (inactive)	> 100 µM (inactive)	26.9 µM (inactive)	> 80.7 µM (inactive)	> 100 µM (inactive)	> 92.5 µM (inactive)	42 µM (inactive)	33.1 µM (inactive)	> 92.9 µM (inactive)	> 100 µM (inactive)	> 100 µM (inactive)
COc1ccc(-n2c(N)c(C#N)c(C#N)c2-c2cccc([N+](=O)[O-])c2)cc1	> 100 µM (inactive)	15.3 µM (inactive)	5.37 µM (inactive)	> 100	–	67.5 µM (inactive)	5.31 µM (inactive)	35.2 µM (inactive)	15.3 µM (inactive)	> 100 µM (inactive)	18.7 µM (inactive)	> 100 µM (inactive)	> 100 µM (inactive)	> 100 µM (inactive)	26.5 µM (inactive)	> 100 µM (inactive)	33.9 µM (inactive)	> 100 µM (inactive)	2.55 µM (inactive)
O=c1[nH]nc(Cc2ccccc2)n1/N=C\CC/C=N\n1c(Cc2ccccc2)n[nH]c1=O	61.1 µM (inactive)	41.8 µM (inactive)	21.5 µM (inactive)	19.9	30.1 µM (inactive)	22.1 µM (inactive)	12.5 µM (inactive)	30.9 µM (inactive)	20.2 µM (inactive)	> 100 µM (inactive)	9.77 µM (inactive)	25.8 µM (inactive)	> 100 µM (inactive)	24.7 µM (inactive)	48.8 µM (inactive)	36.2 µM (inactive)	29.5 µM (inactive)	> 100 µM (inactive)	24.3 µM (inactive)
Cc1ccc2cc3c(ccc4ccccc43)c3c2c1CC3 [3-METHYLCHOLANTHRENE]	> 100 µM (inactive)	> 100 µM (inactive)	> 100 µM (inactive)	9.82	> 100 µM (inactive)	> 100 µM (inactive)	> 100 µM (inactive)	> 100 µM (inactive)	83.9 µM (inactive)	–	> 100 µM (inactive)	> 100 µM (inactive)	> 100 µM (inactive)	–	–	> 100 µM (inactive)	> 100 µM (inactive)	> 100 µM (inactive)	> 100 µM (inactive)
C[n+]1[n-]o/c(=N\N=O)c1-c1cc(-c2/c(=N/N=O)o[n-][n+]2C)cc(-c2/c(=N\N=O)o[n-][n+]2C)c1	> 100 µM (inactive)	> 100 µM (inactive)	> 100 µM (inactive)	> 100	> 100 µM (inactive)	> 100 µM (inactive)	> 100 µM (inactive)	> 100 µM (inactive)	> 100 µM (inactive)	> 100 µM (inactive)	> 100 µM (inactive)	> 100 µM (inactive)	> 100 µM (inactive)	> 100 µM (inactive)	> 100 µM (inactive)	> 100 µM (inactive)	> 100 µM (inactive)	> 100 µM (inactive)	> 100 µM (inactive)
CCOC(=O)c1cc(C2(O)CCN(CC(C)CC)C2=O)c(-c2cc(C)no2)[nH]1 (stereo not given)	–	> 100 µM (inactive)	> 100 µM (inactive)	> 100	> 100 µM (inactive)	> 100 µM (inactive)	> 100 µM (inactive)	> 100 µM (inactive)	> 100 µM (inactive)	> 100 µM (inactive)	> 100 µM (inactive)	> 100 µM (inactive)	> 100 µM (inactive)	> 100 µM (inactive)	> 100 µM (inactive)	> 100 µM (inactive)	> 100 µM (inactive)	–	> 100 µM (inactive)
O=C(O)/C(=C\c1ccc(O)cc1)c1cccc2ccccc12	> 100 µM (inactive)	> 100 µM (inactive)	–	> 100	> 100 µM (inactive)	35 µM (inactive)	–	> 100 µM (inactive)	> 100 µM (inactive)	> 100 µM (inactive)	> 100 µM (inactive)	> 100 µM (inactive)	> 100 µM (inactive)	> 100 µM (inactive)	> 100 µM (inactive)	> 100 µM (inactive)	> 100 µM (inactive)	> 100 µM (inactive)	> 100 µM (inactive)
Oc1ccc(Cc2cc(Cl)cc(Cl)c2O)cc1Cl	16.7 µM (inactive)	18.2 µM (inactive)	22.3 µM (inactive)	16.9	17.3 µM (inactive)	19.2 µM (inactive)	–	18.4 µM (inactive)	18 µM (inactive)	18.4 µM (inactive)	14.2 µM (inactive)	18.8 µM (inactive)	22.6 µM (inactive)	16.8 µM (inactive)	23.3 µM (inactive)	15.5 µM (inactive)	20.3 µM (inactive)	16.3 µM (inactive)	13.4 µM (inactive)
Oc1[nH]c(Nc2ccc(Cl)cc2)nc2ncnc1-2	90.8 µM (inactive)	81.3 µM (inactive)	> 100 µM (inactive)	> 100	> 100 µM (inactive)	> 100 µM (inactive)	–	61.7 µM (inactive)	23.3 µM (inactive)	> 100 µM (inactive)	44.9 µM (inactive)	> 100 µM (inactive)	> 100 µM (inactive)	> 100 µM (inactive)	64.7 µM (inactive)	–	> 100 µM (inactive)	> 100 µM (inactive)	–
O=S1(=O)c2ccccc2C(=NO)c2ccccc21	37.1 µM (inactive)	> 100 µM (inactive)	59.4 µM (inactive)	> 100	> 100 µM (inactive)	> 100 µM (inactive)	47.1 µM (inactive)	80 µM (inactive)	63.8 µM (inactive)	> 100 µM (inactive)	29.8 µM (inactive)	59.2 µM (inactive)	> 100 µM (inactive)	–	> 100 µM (inactive)	68.2 µM (inactive)	> 100 µM (inactive)	> 100 µM (inactive)	24.8 µM (inactive)
NC1(CCNC(=O)c2ccccc2)CCN(C(=O)c2ccccc2)CC1	3.67 µM (inactive)	50.7 µM (inactive)	> 100 µM (inactive)	> 100	–	–	> 100 µM (inactive)	> 100 µM (inactive)	> 100 µM (inactive)	> 100 µM (inactive)	> 100 µM (inactive)	> 100 µM (inactive)	> 100 µM (inactive)	29.2 µM (inactive)	–	> 100 µM (inactive)	> 100 µM (inactive)	> 100 µM (inactive)	> 100 µM (inactive)
COc1cc(/C=N/NC(=O)c2ccc(NC(C)=O)cc2OC)ccc1O	96.2 µM (inactive)	22.6 µM (inactive)	> 100 µM (inactive)	76.6	> 100 µM (inactive)	–	> 100 µM (inactive)	84.5 µM (inactive)	32.4 µM (inactive)	> 100 µM (inactive)	> 100 µM (inactive)	> 100 µM (inactive)	> 100 µM (inactive)	> 100 µM (inactive)	> 100 µM (inactive)	> 100 µM (inactive)	> 100 µM (inactive)	–	39.3 µM (inactive)
O=Cc1c(-c2ccccc2)nc2ccccc2c1O	50.8 µM (inactive)	> 100 µM (inactive)	34.7 µM (inactive)	65.2	> 100 µM (inactive)	92.7 µM (inactive)	–	64.6 µM (inactive)	30.1 µM (inactive)	> 100 µM (inactive)	< 0.01 µM (active)	> 100 µM (inactive)	43.4 µM (inactive)	54 µM (inactive)	> 100 µM (inactive)	–	49.2 µM (inactive)	> 100 µM (inactive)	–
